Data on 5 compounds can be found in US4387100A, “Substituted phenoxy-aminopropanol derivatives” (Hoffmann-La Roche Inc., priority 1980, dated 1983).

SMILES strings stand for the structures. Like-named read-outs stand apart in the source and are kept apart here. Some results are limits rather than exact numbers.

One test deals with T1, β1-adrenoceptors (Rattus norvegicus, UniProt P18090).
T1 construct: this activity is measured in rats by determining the dosage; from tissue; host or cells: living rat, i.v. dosing; read-out heart rate (isoprenaline-induced tachycardia)
Briefly: 50% reduction in isoprenaline-induced tachycardia (β1-blocking activity) in rats, i.v. As to conditions: iv, read-out: ED50 (HR). The class given is in vivo.

The next test addresses T2, β2-adrenoceptors (Rattus norvegicus, UniProt P10608).
T2 construct: this activity is measured in rats by determining the dosage; from tissue; host or cells: living rat, i.v. dosing; read-out blood pressure (isoprenaline-induced depressor response)
The experiment in a line: 50% reduction in isoprenaline-induced depressor responses (β2-blocking activity) in rats, i.v. The test is classed as in vivo. Particulars: iv, dosage for 50% reduction in isoprenaline-induced depressor responses.

Where [1] appears, read: rats, i.v., dosage for 50% reduction in isoprenaline-induced tachycardia.

T2 sequence (P10608 whole entry): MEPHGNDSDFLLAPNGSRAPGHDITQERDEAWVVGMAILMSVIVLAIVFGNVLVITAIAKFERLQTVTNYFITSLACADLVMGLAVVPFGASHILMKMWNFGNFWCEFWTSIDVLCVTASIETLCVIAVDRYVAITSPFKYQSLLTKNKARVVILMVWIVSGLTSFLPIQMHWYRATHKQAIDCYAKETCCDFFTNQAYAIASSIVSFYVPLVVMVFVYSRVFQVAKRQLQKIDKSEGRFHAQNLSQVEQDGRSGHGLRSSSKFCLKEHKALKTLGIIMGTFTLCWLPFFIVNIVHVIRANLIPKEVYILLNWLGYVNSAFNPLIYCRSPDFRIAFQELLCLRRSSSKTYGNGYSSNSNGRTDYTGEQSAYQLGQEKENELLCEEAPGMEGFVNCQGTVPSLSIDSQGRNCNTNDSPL
T1 sequence (P18090 whole entry): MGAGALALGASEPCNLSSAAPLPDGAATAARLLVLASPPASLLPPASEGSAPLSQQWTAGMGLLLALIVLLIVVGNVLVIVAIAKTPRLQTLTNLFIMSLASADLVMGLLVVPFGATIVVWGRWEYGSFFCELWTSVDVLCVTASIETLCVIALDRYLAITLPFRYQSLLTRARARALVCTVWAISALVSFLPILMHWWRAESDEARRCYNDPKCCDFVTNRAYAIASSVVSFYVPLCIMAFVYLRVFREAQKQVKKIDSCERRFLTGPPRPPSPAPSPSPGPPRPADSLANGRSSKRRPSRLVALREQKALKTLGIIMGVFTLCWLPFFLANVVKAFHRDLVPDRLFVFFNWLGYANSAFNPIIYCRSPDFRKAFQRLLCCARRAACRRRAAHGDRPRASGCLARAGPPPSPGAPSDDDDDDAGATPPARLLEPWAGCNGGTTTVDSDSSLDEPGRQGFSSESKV

For `CC(C)NCC(O)COc1ccc(CC(N)=O)cc1` (stereo not drawn) [Atenolol, atenolol, reference compound], at β1-adrenoceptors, the 50% effective dose (ED50) was 0.091 mg/kg.

As to `CC(C)NCC(O)COc1ccc(OCn2cc(Cl)cn2)cc1` (stereo not drawn) [B], the ED50 at β2-adrenoceptors was found to be 2.43 mg/kg; at β1-adrenoceptors (setting [1]), 0.004 mg/kg.

For the compound `CC(C)NCC(O)COc1ccc(OCCn2nccn2)cc1` (stereo not drawn) [D], the ED50 at β2-adrenoceptors is greater than 2 mg/kg; on β1-adrenoceptors (setting [1]) it was 0.014 mg/kg.

Turning to `CC(C)NCC(O)COc1ccc(OCCn2cccn2)cc1` (stereo not drawn) [A], the ED50 on β2-adrenoceptors was 6.5 mg/kg; on β1-adrenoceptors (setting [1]), 0.05 mg/kg.

For the compound `CC(C)NCC(O)COc1ccc(OCn2nccn2)cc1` (stereo not drawn) [C], the ED50 was greater than 2 mg/kg on β2-adrenoceptors and 0.011 mg/kg on β1-adrenoceptors (setting [1]).

What is called ED50 is the midpoint of the dose-response relation.
